Literature values in PubChem BioAssay AID1259409 (Chemical Carcinogenesis Research Information System (CCRIS), 2018).

Tested on: rodent chemically induced tumor inhibition, incidence and multiplicity
Experiment: CCRIS tumor inhibitor studies

SMILES	tumour outcome (control, treated, inhibition, significance) (Carcinogen: DIETHYLNITROSAMINE, 55-18-5, Dose [Inhibitor]: 0, 5 MG/KG INJECTED 4, 24, AND 48 HR AFTER EACH CARCINOGEN EXPOSURE (STUDY DURATION: 6 MO), Route [Inhibitor]: INTRAPERITONEAL, Species: RAT, Strain/Sex: BD6/MALE, Target Tissue: Type of Lesion: ESOPHAGUS: TUMOR, Dose [Carcinogen]: 80 MG/KG 1/WK FOR 5 WK)	tumour outcome (control, treated, inhibition, significance) (Carcinogen: DIETHYLNITROSAMINE, 55-18-5, Dose [Inhibitor]: 0, 5 MG/KG INJECTED 4, 24, AND 48 HR AFTER EACH CARCINOGEN EXPOSURE (STUDY DURATION: 6 MO), Route [Inhibitor]: INTRAPERITONEAL, Species: RAT, Strain/Sex: BD6/MALE, Target Tissue: Type of Lesion: LIVER: TUMOR, Dose [Carcinogen]: 80 MG/KG 1/WK FOR 5 WK)	tumour outcome (control, treated, inhibition, significance) (Carcinogen: DIETHYLNITROSAMINE, 55-18-5, Dose [Inhibitor]: 0, 10 MG/KG INJECTED 4, 24, AND 48 HR AFTER EACH CARCINOGEN EXPOSURE (STUDY DURATION: 6 MO), Route [Inhibitor]: INTRAPERITONEAL, Species: RAT, Strain/Sex: BD6/MALE, Target Tissue: Type of Lesion: ESOPHAGUS: TUMOR, Dose [Carcinogen]: 80 MG/KG 1/WK FOR 5 WK)	tumour outcome (control, treated, inhibition, significance) (Carcinogen: DIETHYLNITROSAMINE, 55-18-5, Dose [Inhibitor]: 0, 10 MG/KG INJECTED 4, 24, AND 48 HR AFTER EACH CARCINOGEN EXPOSURE (STUDY DURATION: 6 MO), Route [Inhibitor]: INTRAPERITONEAL, Species: RAT, Strain/Sex: BD6/MALE, Target Tissue: Type of Lesion: LIVER: TUMOR, Dose [Carcinogen]: 80 MG/KG 1/WK FOR 5 WK)	tumour outcome (control, treated, inhibition, significance) (Carcinogen: BENZO[A]PYRENE, 50-32-8, Dose [Inhibitor]: 0.03 MMOL/G OF DIET DAILY STARTING 7 D BEFORE AND CONTINUING THROUGH 3 D AFTER CARCINOGEN TREATMENT FOLLOWED BY OBSERVAT, Route [Inhibitor]: ORAL, Species: MOUSE, Strain/Sex: ICR/FEMALE, Target Tissue: Type of Lesion: FORESTOMACH: NEOPLASM, Dose [Carcinogen]: 1 MG IN 0.2 ML CORN OIL 2/WK FOR 4 WK, Promoter: NONE USED)
Nc1ncn([C@@H]2O[C@H](CO)[C@@H](O)[C@H]2O)c(=O)n1	4/29 (14%), 3/27 (11%), 21%, not calculated	15/29 (52%), 25/27 (93%), -79%, not calculated	4/29 (14%), 0/7 (0%), 100%, not calculated	15/29 (52%), 6/7 (86%), -65%, not calculated	
CC(C)(C)c1cc(C(C)(C)C)c(O)cc1O					94%, 100%, -6%, not significant
